How the values were obtained:
[1] = system: de novo telomere addition on chr4 in SL13 cells; experiment: ADDIT assay (Addition of de novo initiated telomeres): modified STELA PCR and PacBio sequencing; type: cell-based, mouse; conditions: for de novo telomere addition compared to DMSO control: cells treated with DMSO, KU55933, Olaparib or both drugs
Source text: To examine potential mammalian genes that regulate telomere length, an assay was developed that allows visualization of telomere addition in vivo, referred here as ADDIT (Addition of de novo initiated telomeres). In a chromosomally stable CASTEiJ mouse fibroblast cell line, chromosome 4 (chr4) was modified to generate an internal 480 bp telomere ‘seed’ sequence followed by a unique I-Sce1 endonuclease cut site (FIG. 1A). The length of seed sequence was based on an early study showing that 400 bp of telomere repeats can act as functional telomeres. Using Southern blot analysis, two independent HYG-positive clones were identified, clone 1L and 1M, with a single chr4 allele correctly modified (data not shown).
To better visualize the telomere addition on the I-Sce1 cut telomere seed, the single telomere length analysis (STELA) (Baird et al., 2004, Hum Mol Genet 13, 1515-1524), a PCR-based approach that can measure telomere lengths from individual chromosome ends was modified. The STELA assay employs annealing and ligation of a linker, ‘telorette’, with TTAGGG and a unique 20-nucleotide sequence to the G-rich 3′ telomere overhang followed by PCR of the telomere from a ‘teltail’ primer and primer in the HYG sequence on the engineered chromosome (FIG. 2). The PCR product lengths will be proportional to the telomere lengths at the cleaved chr4 allele. As a control, to amplify the un-extended cut chromosome in vitro, a different linker, ‘IScerette’ was designed, which has a 4-nt homology to the 4-nt 3′ overhang created by the I-Sce1 endonuclease at the cleavage site (FIG. 2). […] This in vitro IScerette PCR product serves as a marker for the base line length of the cut, unextended telomere seed sequence.
To further verify the longer STELA PCR products represent de novo telomere addition, the PCR products were sequenced with Pacific Biosciences (PACBIO®) next generation sequencing technology. The PACBIO® platform produces longer reads and is less GC bias compared to other next generation sequencing platforms. While errors were present in the sequence as expected, the telomere repeats were easily recognizable. All of the reads from the PACBIO® were filtered and only those that had unique HYG sequence followed by telomere sequence and the ‘teltail’ primer sequence were examined. This assures that only full length of STELA PCR products were analyzed. The reads were then aligned at the junction between the HYG sequence and the telomere repeats. Wild-type TTAGGG repeats were colored orange and variant telomere repeats were colored in darker orange (FIG. 3A). Some of these variants arose due to errors in sequencing. An error rate similar to the published error rate of PACBIO® sequencing, 10-15% was observed. The errors were uniformly distributed over the reference sequence, dominated by point insertions and deletions, as expected for PACBIO® sequencing. There were three regions of divergent sequence in the original construct that are evident as darker orange stripes in the aligned reads (see for reference, in vitro IScelrette). These are small variation in TTAGGG sequence in the original SL13 clone and serve as useful internal reference points.
The original STELA protocol used for human cells (Baird et al., 2004, Hum Mol Genet 13, 1515-1524) was modified to measure telomere lengths on the de novo end of chr4 in SL13 cells. Briefly, genomic DNA was extracted using Puregene Core Kit A ^TM (Qiagen). 4 μg of genomic DNA was digested with SphI (NEB) and later diluted to 10 ng/μl in water. For the in vitro IScerette sample, genomic DNA was digested with SphI and I-SceI (NEB) prior to ligation. The ligation was carried out at 35° C. for at least 12 hrs in a volume of 10 μl containing 10 ng of digested genomic DNA, 0.9 μM of telorette linkers (mixture of telorette 1 to 6) or IScerette linker and 0.5 U of T4 DNA ligase (NEB) in 1× T4 ligation buffer. […]

[2] = system: ATM kinase-dependent signaling pathway (Kap1-S824 phosphorylation); experiment: Western blot of phosphorylated Kap1 (ATM substrate); type: cell-based, mouse
Source text: Having established the robust ADDIT assay that can measure telomere elongation over one cell cycle, it was desired to examine whether the ATM kinase activity is required for telomere elongation. Two different methods were used to inhibit ATM: the ATM specific inhibitor KU55933 and siRNA knockdown. To confirm the inhibition of ATM kinase activity, the phosphorylation level of ATM substrate Kap1 as well as ATR kinase substrate Chk1 was examined by western blot. Cultured cells were pretreated with KU55933, siATM or DMSO control and later exposed to a DNA damaging reagent Camptothecin (CPT).
To detect phospho-proteins, 1× lysis buffer made of final concentration of 1× RIPA (Cell Signaling, #98016S), 1× protease inhibitor cocktail, 1× PhosSTOP™ (Roche, #4906845001) was added directly to cells on the dish after washing with cold 1× PBS. Protein concentration was measured with a BCA protein assay kit (Thermo, #23227). Typically 10 μg of protein from each sample was applied to SDS-PAGE gels, 4-15% Mini-PROTEAN TGX™ gels (Biorad, #456-1084), and transferred to nitrocellulose membranes in transfer buffer. […] Band intensities were quantified using the Odyssey™ software (LI-COR) and normalized to Actin levels. […]

O=c1cc(-c2cccc3c2Sc2ccccc2S3)oc(N2CCOCC2)c1 [KU55933]
addition of de novo telomere repeats beyond the I-Sce1 site ([1]; 48 hrs doxycycline, 10 μM KU55933 or 5 nM siATM): fewer and significantly shorter elongation products
de novo telomere addition compared to DMSO control ([1]; different STELA primers): less de novo telomere addition compared to DMSO control
Kap1-S824 phosphorylation ([2]; pretreated, later exposed to Camptothecin (CPT), western blot): blocked Kap1 phosphorylation

O=C(c1cc(Cc2n[nH]c(=O)c3ccccc23)ccc1F)N1CCN(C(=O)C2CC2)CC1 [Olaparib]
de novo telomere addition compared to DMSO control ([1]; different STELA primers): significantly higher percentage of de novo telomere addition
percentage of reads with telomere elongation ([1]; cells treated with Olaparib or both drugs, different STELA primers): 22.4%
increased level of Kap1 phosphorylation compared to DMSO-treated control cells ([2]; Olaparib treated cells): 5 fold

Source: patent US11156599B2, “Assay for telomere length regulators” (The Johns Hopkins University, priority 2015, dated 2021)
